Reference: patent US20110076686A1 (priority 2008, published 2011)

Tested on: Legionella pneumophila
Assay type: cell-based
Conditions: DVC step

CC1=C(C(=O)O)N2C(=O)[C@@H](NC(=O)[C@H](N)c3ccccc3)[C@H]2SC1 [cephalexin]
effectiveness as DNA gyrase inhibitor / cellular proliferation inhibitor: very effective DNA gyrase inhibitors | elongation of Legionella pneumophila cells and blocking of division: allow the Legionella pneumophila cells to elongate in preparation for cell division but actually block these elongated cells from dividing

O=C(O)c1cn(C2CC2)c2cc(N3CCNCC3)c(F)cc2c1=O [ciprofloxacin, Ciprofloxacin]
effectiveness as DNA gyrase inhibitor / cellular proliferation inhibitor: very effective DNA gyrase inhibitors | elongation of Legionella pneumophila cells and blocking of division: allow the Legionella pneumophila cells to elongate in preparation for cell division but actually block these elongated cells from dividing

CCn1cc(C(=O)O)c(=O)c2ccc(C)nc21 [nalidixic acid]
effectiveness as DNA gyrase inhibitor / cellular proliferation inhibitor: not a reliably effective DNA gyrase inhibitor | elongation of Legionella pneumophila cells and blocking of division: does not provide sufficient elongation
